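These data come from cells grown in 96-well plates and exposed to compound for 48 hours at five concentrations. TGI: concentration producing complete growth inhibition.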
Experiments:
Test in all cases: NCI tumour cell line growth inhibition, 48 h
[1] = system: 786-0 renal
[2] = system: A498 renal
[3] = system: BT-549 breast
[4] = system: DU-145 prostate
[5] = system: EKVX NSCLC
[6] = system: HCT-15 colon
[7] = system: HOP-62 NSCLC
[8] = system: HT29 colon
[9] = system: MOLT-4 leukemia
[10] = system: NCI-H226 lung
[11] = system: RPMI-8226 leukemia
[12] = system: RXF 393 renal
[13] = system: SK-MEL-28 melanoma
[14] = system: SK-OV-3 ovarian
[15] = system: SR leukemia
[16] = system: U251 CNS
[17] = system: UACC-62 melanoma

Oc1ccc2ccccc2c1-c1c(Nc2ccccc2)ccc2ccccc12
TGI [1]: 34.2 µM | TGI [2]: 36.2 µM | TGI [3]: 30.1 µM | TGI [4]: 32.3 µM | TGI [5]: 40 µM | TGI [6]: > 56.4 µM | TGI [7]: 30.1 µM | TGI [8]: > 53.5 µM | TGI [9]: 46.4 µM | TGI [10]: 36.1 µM | TGI [11]: 47.6 µM | TGI [12]: 34.3 µM | TGI [13]: 27.4 µM | TGI [14]: 18.7 µM | TGI [15]: 51.6 µM | TGI [16]: 52 µM | TGI [17]: 33.6 µM

COC(=O)c1cc(C)n2c1CS[C@@H]2c1ccccc1
TGI [1]: > 100 µM | TGI [2]: 88 µM | TGI [3]: 82.8 µM | TGI [4]: > 100 µM | TGI [5]: 93.2 µM | TGI [6]: > 100 µM | TGI [7]: > 100 µM | TGI [8]: > 100 µM | TGI [9]: 71.1 µM | TGI [10]: 89.1 µM | TGI [11]: 84.5 µM | TGI [12]: 55.5 µM | TGI [13]: > 100 µM | TGI [14]: > 100 µM | TGI [15]: 54.6 µM | TGI [16]: > 100 µM

CC(C)(C)[Si](C)(C)OCC1OC(n2cc(F)c(=O)[nH]c2=O)CC1O[Si](C)(C)C(C)(C)C (stereo not given)
TGI [1]: 20.9 µM | TGI [2]: 21.1 µM | TGI [3]: 17 µM | TGI [4]: 11.3 µM | TGI [5]: 21.7 µM | TGI [6]: 20.4 µM | TGI [7]: 30 µM | TGI [8]: > 100 µM | TGI [9]: 22 µM | TGI [10]: 42.9 µM | TGI [11]: 12.9 µM | TGI [12]: 16.2 µM | TGI [14]: 28.3 µM | TGI [15]: 7.08 µM | TGI [16]: 22.5 µM | TGI [17]: 15.7 µM

O/N=C(\C=N\O)c1ccc2c(c1)Sc1ccccc1O2
TGI [1]: 38.6 µM | TGI [2]: 41.6 µM | TGI [3]: 40.7 µM | TGI [4]: > 100 µM | TGI [5]: 48.9 µM | TGI [6]: 75.2 µM | TGI [7]: 36.8 µM | TGI [8]: 49.7 µM | TGI [9]: 32.7 µM | TGI [10]: 69.6 µM | TGI [11]: 38.9 µM | TGI [12]: 36 µM | TGI [13]: 75.3 µM | TGI [14]: 40.2 µM | TGI [15]: 75.9 µM | TGI [16]: 98.7 µM | TGI [17]: 37.7 µM

O=c1[nH]c(=O)n(C2CC(O)C(COP(=O)(O)OC3CC(n4cc(F)c(=O)[nH]c4=O)OC3COP(=O)(O)OC3CC(n4cc(F)c(=O)[nH]c4=O)OC3COP(=O)(O)OC3CC(n4cc(F)c(=O)[nH]c4=O)OC3COP(=O)(O)OC3CC(n4cc(F)c(=O)[nH]c4=O)OC3COP(=O)(O)OC3CC(n4cc(F)c(=O)[nH]c4=O)OC3COP(=O)(O)OC3CC(n4cc(F)c(=O)[nH]c4=O)OC3COP(=O)(O)OC3CC(n4cc(F)c(=O)[nH]c4=O)OC3COP(=O)(O)OC3CC(n4cc(F)c(=O)[nH]c4=O)OC3COP(=O)(O)OC3CC(n4cc(F)c(=O)[nH]c4=O)OC3CO)O2)cc1F (stereo not given)
TGI [1]: > 50 µM | TGI [2]: 1.12 µM | TGI [3]: > 50 µM | TGI [4]: > 50 µM | TGI [5]: > 50 µM | TGI [6]: > 50 µM | TGI [7]: > 50 µM | TGI [8]: > 50 µM | TGI [9]: > 50 µM | TGI [10]: > 50 µM | TGI [11]: > 50 µM | TGI [12]: > 50 µM | TGI [13]: > 50 µM | TGI [14]: > 50 µM | TGI [15]: > 50 µM | TGI [16]: > 50 µM

CCOC(=O)C1(Cc2ccccc2)Cc2cc3c(cc2C1=O)CCC3 (stereo not given)
TGI [1]: > 100 µM | TGI [2]: > 100 µM | TGI [3]: > 100 µM | TGI [4]: > 100 µM | TGI [5]: > 100 µM | TGI [6]: > 100 µM | TGI [7]: > 100 µM | TGI [8]: > 100 µM | TGI [9]: > 100 µM | TGI [10]: > 100 µM | TGI [11]: > 100 µM | TGI [12]: > 100 µM | TGI [13]: > 100 µM | TGI [14]: > 100 µM | TGI [15]: > 100 µM | TGI [16]: > 100 µM | TGI [17]: > 100 µM

Oc1ccc(-c2c3ccccc3c(-c3ccc(OCCBr)cc3)c3ccccc23)cc1
TGI [1]: 44.5 µM | TGI [2]: 40 µM | TGI [3]: 57.4 µM | TGI [4]: > 100 µM | TGI [5]: > 100 µM | TGI [6]: 77.4 µM | TGI [7]: 50.6 µM | TGI [8]: 43.2 µM | TGI [9]: > 100 µM | TGI [10]: 54.5 µM | TGI [11]: 63.5 µM | TGI [12]: 64.3 µM | TGI [13]: 51 µM | TGI [14]: > 100 µM | TGI [15]: 92.6 µM | TGI [16]: 53.3 µM | TGI [17]: 42.1 µM

COc1ccc(N2C(=O)CSC2c2cc3cc(Br)ccc3nc2Cl)cc1 (stereo not given)
TGI [1]: > 50 µM | TGI [2]: > 50 µM | TGI [3]: > 50 µM | TGI [4]: > 50 µM | TGI [5]: > 50 µM | TGI [6]: > 50 µM | TGI [7]: > 50 µM | TGI [8]: > 50 µM | TGI [9]: > 50 µM | TGI [10]: > 50 µM | TGI [11]: > 50 µM | TGI [12]: > 50 µM | TGI [13]: > 50 µM | TGI [14]: > 50 µM | TGI [15]: > 50 µM | TGI [17]: > 50 µM

CC(C)=CCC[C@](C)(O)[C@H]1CC[C@]2(C)[C@@H]1[C@H](O)C[C@@H]1[C@@]3(C)CC[C@H](O[C@@H]4O[C@H](CO)[C@@H](O)[C@H](O)[C@H]4O)C(C)(C)[C@@H]3CC[C@]12C
TGI [1]: 36 µM | TGI [2]: 35.4 µM | TGI [3]: 34.3 µM | TGI [4]: 35.1 µM | TGI [5]: 39.4 µM | TGI [6]: 32.8 µM | TGI [7]: 47.8 µM | TGI [8]: 32.5 µM | TGI [9]: 34.8 µM | TGI [10]: 34.6 µM | TGI [11]: 38.8 µM | TGI [12]: 32.2 µM | TGI [13]: 34.8 µM | TGI [14]: 33 µM | TGI [15]: 28.8 µM | TGI [16]: 35.2 µM | TGI [17]: 31 µM

NC(=O)Cc1ncn(-c2ccccc2)n1
TGI [1]: > 100 µM | TGI [2]: > 100 µM | TGI [3]: > 100 µM | TGI [4]: > 100 µM | TGI [5]: > 100 µM | TGI [6]: > 100 µM | TGI [7]: > 100 µM | TGI [8]: > 100 µM | TGI [9]: > 100 µM | TGI [10]: > 100 µM | TGI [11]: > 100 µM | TGI [12]: > 100 µM | TGI [14]: > 100 µM | TGI [15]: > 100 µM | TGI [17]: > 100 µM

CC(Oc1ccccc1)C(=O)NN (stereo not given)
TGI [1]: > 100 µM | TGI [2]: > 100 µM | TGI [3]: > 100 µM | TGI [4]: > 100 µM | TGI [5]: > 100 µM | TGI [6]: > 100 µM | TGI [7]: > 100 µM | TGI [8]: > 100 µM | TGI [9]: > 100 µM | TGI [10]: > 100 µM | TGI [11]: > 100 µM | TGI [12]: > 100 µM | TGI [13]: > 100 µM | TGI [14]: > 100 µM | TGI [15]: > 100 µM | TGI [16]: > 100 µM | TGI [17]: > 100 µM

CC1=NN(C(=O)CC(=O)Nc2ccccc2C)C(=O)C1N=Nc1ccc(S(=O)(=O)c2ccc(N=NC3C(=O)N(C(=O)CC(=O)Nc4ccccc4C)N=C3C)cc2)cc1 (stereo not given)
TGI [1]: > 100 µM | TGI [2]: > 100 µM | TGI [3]: > 100 µM | TGI [4]: > 100 µM | TGI [5]: > 100 µM | TGI [6]: > 100 µM | TGI [7]: > 100 µM | TGI [8]: > 100 µM | TGI [9]: > 100 µM | TGI [10]: > 100 µM | TGI [11]: > 100 µM | TGI [12]: > 100 µM | TGI [13]: > 100 µM | TGI [14]: > 100 µM | TGI [15]: > 100 µM | TGI [16]: > 100 µM | TGI [17]: > 100 µM

COc1ccc(/C=C/C(=O)c2nc3ccccc3[nH]2)cc1
TGI [1]: 32.2 µM | TGI [2]: > 82.7 µM | TGI [3]: 55.2 µM | TGI [4]: 45.6 µM | TGI [5]: 46 µM | TGI [6]: > 40.5 µM | TGI [7]: > 88.1 µM | TGI [8]: 22.9 µM | TGI [9]: > 67.1 µM | TGI [10]: > 54.7 µM | TGI [11]: > 29.8 µM | TGI [12]: 35.3 µM | TGI [13]: 65.6 µM | TGI [14]: 86.1 µM | TGI [15]: > 27.1 µM | TGI [16]: 37.3 µM | TGI [17]: 38.9 µM
